Consider 25 molecules from US20170253601A1, “Substituted Pyrrolidine Compounds” (EPIZYME, INC., priority 2014, published 2017).

Structures are written as SMILES. Some results are limits rather than exact numbers.

For the first test, the target named is T1, SMYD2 (Homo sapiens, UniProt Q9NRG4).
T1 construct: Full length SMYD2 (NP 064582.2) was cloned; His6 (N, cleaved yes); FLAG (N); made in house; host or cells: Sf9 insect cells
T1 sequence (Q9NRG4 whole entry): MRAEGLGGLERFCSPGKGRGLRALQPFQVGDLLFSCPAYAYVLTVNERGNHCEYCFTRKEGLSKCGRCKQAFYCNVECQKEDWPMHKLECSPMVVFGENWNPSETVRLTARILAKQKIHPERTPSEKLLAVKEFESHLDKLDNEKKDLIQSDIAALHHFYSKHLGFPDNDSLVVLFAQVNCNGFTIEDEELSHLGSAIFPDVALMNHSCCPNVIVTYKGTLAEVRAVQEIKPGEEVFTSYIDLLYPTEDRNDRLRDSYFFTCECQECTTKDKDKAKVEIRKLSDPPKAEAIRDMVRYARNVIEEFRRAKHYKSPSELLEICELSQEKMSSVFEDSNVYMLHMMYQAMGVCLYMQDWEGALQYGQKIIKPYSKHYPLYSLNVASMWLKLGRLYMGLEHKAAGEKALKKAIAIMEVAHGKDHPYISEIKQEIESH
The test can be described thus: SMYD2 Biochemical Assay (3H-SAM, biotinylated peptide substrate, Flashplate). The settings on record: IC50 values are an average of n = 1 to n = 50; read-out: SMYD2 Biochem IC50 (μM)*. In outline: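 Full-length His/FLAG-tagged SMYD2 expressed in Sf9 cells with tag cleaved, 1.5 nM, pre-incubated 30 min at room temperature with compound, then 10 nM 3H-SAM and 60 nM biotinylated peptide added. Buffer 20 mM Bicine pH 7.6, 1 mM TCEP, 0.005% BSG, 0.002% Tween20, 2% DMSO. Stopped with 600 uM cold SAM; 3H-peptide captured on streptavidin Flashplate; IC50 by curve fit.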
As usually defined, the IC50 is the concentration at which inhibition is half-maximal. As for `C[C@@H]1CN(Cc2cc3ccccc3s2)C[C@H]1NC(=O)c1cc(C2CC2)on1` (racemic) [compound 152, (±)-trans-N-[1-(1-benzothiophen-2-ylmethyl)-4-methyl-pyrrolidin-3-yl]-5-cyclopropyl-1,2-oxazole-3-carboxamide], the IC50 was more than 50 µM.

For the molecule `CC(C)C[C@H]1CN(C)C[C@@H]1NC(=O)c1cc(C2CC2)on1` (racemic) [compound 153, (±)-trans-5-cyclopropyl-N-[1-methyl-4-(2-methylpropyl)pyrrolidin-3-yl]-1,2-oxazole-3-carboxamide], the IC50 came out at 39.1 µM.

In the case of `C[C@H]1CN(CC(=O)N2CCN(C)CC2)C[C@H]1NC(=O)c1cc(C2CC2)on1` (racemic) [compound 263, (±)-cis-5-cyclopropyl-N-[4-methyl-1-[2-(4-methylpiperazin-1-yl)-2-oxoethyl]pyrrolidin-3-yl]-1,2-oxazole-3-carboxamide], the IC50 is more than 50 µM.

In the case of `C[C@@H]1CN(Cc2ccc3nonc3c2)C[C@H]1NC(=O)c1cc(C2CC2)on1` [compound 182, N-[(3S,4R)-1-(2,1,3-benzoxadiazol-5-ylmethyl)-4-methyl-pyrrolidin-3-yl]-5-cyclopropyl-1,2-oxazole-3-carboxamide], the IC50 was more than 50 µM.

For the molecule `CC(C)N1C[C@H](NC(=O)c2cc(C3CC3)on2)[C@@H](C(C)(C)C)C1` (racemic) [compound 146, (±)-trans-N-[4-tert-butyl-1-(propan-2-yl)pyrrolidin-3-yl]-5-cyclopropyl-1,2-oxazole-3-carboxamide], the 50% inhibitory concentration (IC50) was more than 50 µM.

As to `CC(N1C[C@@H](C)[C@H](NC(=O)c2cc(C3CC3)on2)C1)C(F)(F)F` (stereo partly drawn) [compound 247, trans-5-cyclopropyl-N-[(3S,4R)-4-methyl-1-(1,1,1-trifluoropropan-2-yl)pyrrolidin-3-yl]-1,2-oxazole-3-carboxamide], the IC50 is more than 50 µM.

On to `CC(C)c1cc(C(=O)N[C@@H]2C[C@@H](CNC(=O)c3ccccc3)N(C3CC3)C2)no1` (stereo in doubt) [compound 242, (±)-trans-N-[1-cyclo-propyl-5-[(phenyl-formamido)methyl]pyrrolidin-3-yl]-5-(propan-2-yl)-1,2-oxazole-3-carboxamide], for which the IC50 was more than 50 µM.

With `C[C@H]1CN(CCc2ccccc2)C[C@H]1NC(=O)c1cc(C2CC2)on1` (racemic) [compound 291, (±)-cis-5-cyclopropyl-N-[4-methyl-1-(2-phenylethyl)pyrrolidin-3-yl]-1,2-oxazole-3-carboxamide], the IC50 is 2.46 µM.

Consider `CC(C)N1C[C@H](NC(=O)c2cc(C3CC3)on2)[C@H](C(C)(C)C)C1` (racemic) [compound 258, (±)-cis-N-[4-tert-butyl-1-(propan-2-yl)pyrrolidin-3-yl]-5-cyclopropyl-1,2-oxazole-3-carboxamide], for which the IC50 was more than 50 µM.

As to `C[C@@H]1CN(c2cccnc2)C[C@H]1NC(=O)c1cc(C2CC2)on1` (racemic) [compound 309, (±)-trans-5-cyclopropyl-N-[4-methyl-1-(pyridin-3-yl)pyrrolidin-3-yl]-1,2-oxazole-3-carboxamide], the IC50 was more than 50 µM.

Take `C[C@@H]1CN(Cc2ccc3ncccc3c2)C[C@H]1NC(=O)c1cc(C2CC2)on1` (racemic) [compound 204, (±)-trans-5-cyclopropyl-N-[4-methyl-1-(quinolin-6-ylmethyl)pyrrolidin-3-yl]-1,2-oxazole-3-carboxamide]: the IC50 is more than 50 µM.

`C[C@H]1CN(Cc2ccc(Cl)cc2Cl)C[C@H]1NC(=O)c1cc(C2CC2)on1` (racemic) [compound 321, (±)-cis-5-cyclopropyl-N-{1-[(2,4-dichloro-phenyl)methyl]-4-methylpyrrolidin-3-yl}-1,2-oxazole-3-carboxamide]: the IC50 was determined as 4.64 µM.

For the molecule `C[C@@H]1CN(CC(=O)N2CCNCC2)C[C@H]1NC(=O)c1cc(C2CC2)on1` (racemic) [compound 311, (±)-trans-5-cyclopropyl-N-{4-methyl-1-[2-oxo-2-(piperazin-1-yl)ethyl]pyrrolidin-3-yl}-1,2-oxazole-3-carboxamide], the IC50 was more than 50 µM.

In the case of `CC(C)N1C[C@@H](NC(=O)c2cc(C3CC3)on2)[C@@](C)(O)C1` (racemic) [compound 241, (±)-cis-5-cyclopropyl-N-[4-hydroxy-4-methyl-1-(propan-2-yl)pyrrolidin-3-yl]-1,2-oxazole-3-carboxamide], the IC50 turned out to be 24.8 µM.

Consider `C[C@H]1CN(c2ccccn2)C[C@H]1NC(=O)c1cc(C2CC2)on1` (racemic) [compound 318, (±)-cis-5-cyclopropyl-N-[4-methyl-1-(pyridin-2-yl)pyrrolidin-3-yl]-1,2-oxazole-3-carboxamide], for which the IC50 is more than 50 µM.

Take `C[C@@H]1CN(CCF)C[C@H]1NC(=O)c1cc(C2CC2)on1` (racemic) [compound 253, (±)-trans-5-cyclopropyl-N-[1-(2-fluoroethyl)-4-methylpyrrolidin-3-yl]-1,2-oxazole-3-carboxamide]: the IC50 was more than 50 µM.

On to `COc1cccc(CN2C[C@H](C)[C@H](NC(=O)c3cc(C4CC4)on3)C2)c1` (racemic) [compound 223, (±)-cis-5-cyclopropyl-N-[1-[(3-methoxy-phenyl)methyl]-4-methylpyrrolidin-3-yl]-1,2-oxazole-3-carboxamide], for which the IC50 came to 4.96 µM.

`C[C@H]1CN(CC2CCOC2)C[C@H]1NC(=O)c1cc(C2CC2)on1` (mixture of isomers) [compound 155, (±)-cis-5-cyclopropyl-N-[4-methyl-1-(oxolan-3-ylmethyl)pyrrolidin-3-yl]-1,2-oxazole-3-carboxamide]: the IC50 turned out to be 4.49 µM.

Staying with this test, now noted: Table 1; average of n = 1 to n = 50; read-out: SMYD2 Biochem IC50.
As for `C[C@H]1CN(C2CC2)C[C@@H]1NC(=O)c1cc(C2CCCC2)on1` (racemic) [compound 53, (±)-trans-5-cyclopentyl-N-(1-cyclopropyl-4-methylpyrrolidin-3-yl)isoxazole-3-carboxamide], the IC50 was more than 50 µM.

With `C[C@H]1CN(C)C[C@H]1NC(=O)c1cc(C2CC2)on1` (racemic) [compound 44], the IC50 is 4.6 µM.

For the molecule `O=C(N[C@@H]1CN(C2CC2)C[C@H]1O)c1cc(C2CC2)on1` (racemic) [compound 47, (±)-trans-5-cyclopropyl-N-(1-cyclopropyl-4-hydroxypyrrolidin-3-yl)isoxazole-3-carboxamide], the IC50 is more than 50 µM.

Staying with this test, now noted: Table 2; average of n = 1 to n = 50; read-out: SMYD2 Biochem IC50.
Turning to `C[C@@H]1CN(C2CCS(=O)(=O)CC2)C[C@@H]1NC(=O)c1cc(C2CC2)on1` (racemic) [compound 74, (±)-cis-5-cyclopropyl-N-(1-(1,1-dioxidotetrahydro-2H-thiopyran-4-yl)-4-methylpyrrolidin-3-yl)isoxazole-3-carboxamide], the IC50 was determined as 14 µM.

With `C[C@@H]1CN(C2CCCC2)C[C@H]1NC(=O)c1cc(C2CC2)on1` (racemic) [compound 99, (±)-trans-N-(1-cyclopentyl-4-methylpyrrolidin-3-yl)-5-cyclopropylisoxazole-3-carboxamide], the IC50 is 48.7 µM.

Take `CC(=O)N1CCC(N2C[C@@H](C)[C@@H](NC(=O)c3cc(C4CC4)on3)C2)CC1` (racemic) [compound 83, (±)-cis-N-(1-(1-acetylpiperidin-4-yl)-4-methylpyrrolidin-3-yl)-5-cyclopropylisoxazole-3-carboxamide]: the IC50 was more than 50 µM.

As to `C[C@H]1CN(C2CCCC2)C[C@H]1NC(=O)c1cc(C2CC2)on1` (racemic) [compound 75, (±)-cis-N-(1-cyclopentyl-4-methylpyrrolidin-3-yl)-5-cyclopropylisoxazole-3-carboxamide], the IC50 amounted to 5 µM.
